Results from patent publication US10752584B2 (EMORY UNIVERSITY, priority 2016, dated 2020).
pEC50: −log10 of the molar value. Where two headings read alike, the source gives them in different places.

How the values were obtained:
Assay type in all cases: cell-based
wild type HBV = assay: Anti-HBV assay in AD-38 cell line; settings: Hepatitis B virus; for pEC50: read-out: Anti-HBV activity EC50; for EC90: read-out: Anti-HBV activity EC90
Description: The anti-HBV activity of the compounds was determined by treating the AD-38 cell line carrying wild type HBV under the control of tetracycline (see Ladner S. K., Otto M. J., Barker C. S., Zaifert K., Wang G. H., Guo J. T., Seeger C. & King R. W. Antimicrob. Agents Chemother. 1997, 41, 1715-20). Removal of tetracycline from the medium [Tet (−)] results in the production of HBV. The levels of HBV in the culture supernatant fluids from cells treated with the compounds were compared with that of the untreated controls. Control cultures with tetracycline [Tet (+)] were also maintained to determine the basal levels of HBV expression. 3TC was included as positive control.
The median effective concentrations (EC50) ranges of several of the compounds described herein against HBV are shown in Table 3: […]

[1] = Cellular toxicity assay in human PBM cells; settings: human, read-out: Cytotoxicity
Description: (§1) The toxicity of the compounds was assessed in Vero, human PBM, CEM (human lymphoblastoid), MT-2, and HepG2 cells, as described previously (see Schinazi R. F., Sommadossi J.-P., Saalmann V., Cannon D. L., Xie M.-Y., Hart G. C., Smith G. A. & Hahn E. F. Antimicrob. Agents Chemother. 1990, 34, 1061-67). Cycloheximide was included as positive cytotoxic control, and untreated cells exposed to solvent were included as negative controls. The cytotoxicity IC50 was obtained from the concentration-response curve using the median effective method described previously (see Chou T.-C. & Talalay P. Adv. Enzyme Regul. 1984, 22, 27-55; Belen'kii M. S. & Schinazi R. F. Antiviral Res. 1994, 25, 1-11).

[2] = Cellular toxicity assay in CEM cells; settings: human, read-out: Cytotoxicity
Description: as §1

[3] = Cellular toxicity assay in Vero cells; settings: African green monkey, read-out: Cytotoxicity
Description: as §1

[4] = Cellular toxicity assay in HepG2 cells; settings: human, read-out: Cytotoxicity
Description: as §1

[5] = AD-38 cells, HBV in culture supernatant

SMILES | pEC50 (wild type HBV; [5]) | CC50 ([1]; human PBM cells) [µM] | CC50 ([2]; CEM lymphoblastoid cells) [µM] | CC50 [3] [µM] | EC90 (wild type HBV; [5]) [µM] | CC50 [4] [µM] | pEC50 (wild type HBV) | EC90 (wild type HBV) [µM] | CC50 [1] [µM] | CC50 [2] [µM]
C#CCNC(=O)C(=O)c1c(C)c(C(=O)Nc2ccc(OC(F)(F)F)cc2)n(C)c1C [Compound 54, 1,3,5-trimethyl-4-(2-oxo-2-(prop-2-yn-1-ylamino)acetyl)-N-(4-(trifluoromethoxy)phenyl)-1H-pyrrole-2-carboxamide] | 5.05 to 6.00 | 3 | 4 | 6 |  |  |  |  |  | 
Cc1c(C(=O)C(=O)NCc2nccn2C)c(C)n(C)c1C(=O)Nc1ccc(F)c(F)c1 [Compound 48, N-(3,4-difluorophenyl)-1,3,5-trimethyl-4-(2-(((1-methyl-1H-imidazol-2-yl)methyl)amino)-2-oxoacetyl)-1H-pyrrole-2-carboxamide] | 8.05 to 9.00 | > 100 | 27 | > 100 | 0.01 to 0.09 | 84 |  |  |  | 
C=CCNC(=O)C(=O)c1c(C)c(C(=O)Nc2ccc(F)c(F)c2)n(C)c1C [Compound 75, 4-(2-(allylamino)-2-oxoacetyl)-N-(3,4-difluorophenyl)-1,3,5-trimethyl-1H-pyrrole-2-carboxamide] | 8.05 to 9.00 | > 100 | 66 | 33 | 0.01 to 0.09 | > 100 |  |  |  | 
Cn1cc(C(=O)C(=O)Nc2ccccc2)cc1C(=O)Nc1ccc(F)c(F)c1 [Compound 28, N-(3,4-difluorophenyl)-1-methyl-4-(2-oxo-2-(phenylamino)acetyl)-1H-pyrrole-2-carboxamide] | 7.05 to 8.00 |  | > 100 | 13.4 | 1 to 9 | > 100 |  |  |  | 
Cc1c(C(=O)C(=O)NCC#N)c(C)n(C)c1C(=O)Nc1ccc(F)c(F)c1 [Compound 81, 4-(2-((cyanomethyl)amino)-2-oxoacetyl)-N-(3,4-difluorophenyl)-1,3,5-trimethyl-1H-pyrrole-2-carboxamide] | 8.05 to 9.00 | 30 | 33 | > 100 | 0.1 to 0.9 | 71 |  |  |  | 
C#CCNS(=O)(=O)c1cc(C(=O)Nc2ccc(F)c(F)c2)n(C)c1 [Compound 17, N-(3,4-Difluorophenyl)-1-methyl-4-(N-(prop-2-yn-1-yl)sulfamoyl)-1H-pyrrole-2-carboxamide] | 6.05 to 7.00 | > 100 | 53 | 41 | 1 to 9 |  |  |  |  | 
Cn1cc(C(=O)C(=O)N2CC(F)(F)C2)cc1C(=O)Nc1ccc(F)c(F)c1 [Compound 32, 4-(2-(3,3-difluoroazetidin-1-yl)-2-oxoacetyl)-N-(3,4-difluorophenyl)-1-methyl-1H-pyrrole-2-carboxamide] | 5.05 to 6.00 | > 100 | > 100 | > 100 | 1 to 9 | > 100 |  |  |  | 
C#CCNC(=O)C(=O)c1c(C)c(C(=O)NC(C)(C)c2ccc(F)c(F)c2)n(C)c1C [Compound 56, N-(2-(3,4-difluorophenyl)propan-2-yl)-1,3,5-trimethyl-4-(2-oxo-2-(prop-2-yn-1-ylamino)acetyl)-1H-pyrrole-2-carboxamide] | 5.05 to 6.00 | > 100 | > 100 | > 100 |  | > 100 |  |  |  | 
C#CCNC(=O)C(=O)c1c(C)c(C(=O)Nc2ccc(F)nc2)n(C)c1C [Compound 61, N-(6-fluoropyridin-3-yl)-1,3,5-trimethyl-4-(2-oxo-2-(prop-2-yn-1-ylamino)acetyl)-1H-pyrrole-2-carboxamide] | 6.05 to 7.00 | > 100 | > 100 | > 100 | 0.1 to 0.9 | > 100 |  |  |  | 
C#CCNC(=O)C(=O)c1c(C)c(C(=O)NC2(c3ccc(F)c(F)c3)CC2)n(C)c1C [Compound 57, N-(1-(3,4-difluorophenyl)cyclopropyl)-1,3,5-trimethyl-4-(2-oxo-2-(prop-2-yn-1-ylamino)acetyl)-1H-pyrrole-2-carboxamide] | 5.05 to 6.00 | > 100 | > 100 | > 100 |  | > 100 |  |  |  | 
C=CCn1cc(CNC(=O)C(=O)c2c(C)c(C(=O)Nc3ccc(F)c(F)c3)n(C)c2C)nn1 [Compound 8] |  |  |  | > 100 |  | 98.6 | 8.05 to 9.00 | 0.01 to 0.09 | 60.5 | 45.4
Cc1c(C(=O)C(=O)NCc2nn[nH]n2)c(C)n(C)c1C(=O)Nc1ccc(F)c(F)c1 [Compound 82, 4-(2-(((2H-tetrazol-5-yl)methyl)amino)-2-oxoacetyl)-N-(3,4-difluorophenyl)-1,3,5-trimethyl-1H-pyrrole-2-carboxamide] | 5.05 to 6.00 | > 100 | > 100 | > 100 |  | > 100 |  |  |  | 
C#CCNC(=O)C(=O)c1c(C)c(C(=O)Nc2ccc(F)c(Cl)c2)n(C)c1C [Compound 66, N-(3-chloro-4-fluorophenyl)-1,3,5-trimethyl-4-(2-oxo-2-(prop-2-yn-1-ylamino)acetyl)-1H-pyrrole-2-carboxamide] | 8.05 to 9.00 | > 100 | 52 | 70 | 0.01 to 0.09 | 83 |  |  |  | 
Cc1c(C(=O)C(=O)N2CCOCC2)c(C)n(C)c1C(=O)Nc1ccc(F)c(F)c1 [Compound 72, N-(3,4-difluorophenyl)-1,3,5-trimethyl-4-(2-morpholino-2-oxoacetyl)-1H-pyrrole-2-carboxamide] | 6.05 to 7.00 | 30 | 14 | 51 | 0.1 to 0.9 | 100 |  |  |  | 
Cc1c(C(=O)C(=O)NCC#Cc2nccn2C)c(C)n(C)c1C(=O)Nc1ccc(F)c(F)c1 [Compound 83, N-(3,4-difluorophenyl)-1,3,5-trimethyl-4-(2-((3-(1-methyl-1H-imidazol-2-yl)prop-2-yn-1-yl)amino)-2-oxoacetyl)-1H-pyrrole-2-carboxamide] | 5.05 to 6.00 | 7 | 4 | 7 |  | 42 |  |  |  | 
Cc1c(C(=O)C(=O)NCc2c[nH]nn2)c(C)n(C)c1C(=O)Nc1ccc(F)c(F)c1 [Compound 38, 4-(2-(((1H-1,2,3-triazol-4-yl)methyl)amino)-2-oxoacetyl)-N-(3,4-difluorophenyl)-1,3,5-trimethyl-1H-pyrrole-2-carboxamide] | 8.05 to 9.00 | > 100 | 29 | 45 | 0.1 to 0.9 | 85 |  |  |  | 
Cc1c(C(=O)C(=O)Nc2ccccn2)c(C)n(C)c1C(=O)Nc1ccccc1 [Compound 52, 1,3,5-trimethyl-4-(2-oxo-2-(pyridin-2-ylamino)acetyl)-N-phenyl-1H-pyrrole-2-carboxamide] | 7.05 to 8.00 | > 100 | 50 | > 100 | 0.1 to 0.9 | > 100 |  |  |  | 
Cn1cc(C(=O)C(=O)NCC#N)cc1C(=O)Nc1ccc(F)c(F)c1 [Compound 30, 4-(2-((cyanomethyl)amino)-2-oxoacetyl)-N-(3,4-difluorophenyl)-1-methyl-1H-pyrrole-2-carboxamide] | 5.05 to 6.00 |  | > 100 | 91.4 | 1 to 9 | > 100 |  |  |  | 
Cn1cc(C(=O)C(=O)NOC2CCCC2)cc1C(=O)Nc1ccc(F)c(F)c1 [Compound 27, 4-(2-((cyclopentyloxy)amino)-2-oxoacetyl)-N-(3,4-difluorophenyl)-1-methyl-1H-pyrrole-2-carboxamide] | 7.05 to 8.00 |  | 37.9 | 80.1 | 1 to 9 | > 100 |  |  |  | 
